# Key:
# E. coli [1] = assay: Antimicrobial testing using ISO22196 protocol on compression molded samples; assay type: cell-based; settings: surface functionalized (covalently attached QAC) sample; FIG. 7B
# E. coli [2] = assay: Contact-killing assay (adapted from ISO 22196) on allyl-TPU blade-coated samples modified with Qx-SH; assay type: cell-based, Escherichia coli (ATCC 25922); settings: for Mean CFU/Sample Recovered, E. coli: n = 2
# Protocol: (§1) To functionalize the allyl-TPU blade-coated samples with Qx-SH reagents, thiol-ene reactions were performed using the same procedure described for rhodamine-SH. Briefly, blade-coated films of allyl-TPU (250 μm thick, 2.0 cm diameter, ca. 110 mg, 20 μmol allyl) were submerged in 2 mL of an Ar purged (30 min) aqueous solution containing Qx-SH (10.0 mM) and LAP (5.0 mM), and allowed to pre-soak for 30 min under Ar. UV-treated samples were irradiated for 30 min (λ=365 nm, I=1.2 mW·cm^−2) while phys. ads. samples were kept in the absence of UV light for 30 min to control for any antimicrobial activity that is contributed by non-covalently attached QAC. Following treatment, the dye/photoinitiator solutions were drawn up and discarded, and the samples were rinsed with 5 mL of DI water (3×) then submerged in 5 mL of DI water. The samples were further rinsed with 10% EtOH (3×) and soaked in 10% EtOH for 15 min (3×), rinsing with 10% EtOH in between each soak.
# (§2) For antimicrobial testing, blade-coated samples and catheter tubing of allyl-TPU were sterilized by EtO sterilization using an Anprolene benchtop sterilizer (Anderson Products, Inc., Haw River, N.C.) following the manufacturer's protocol to deliver approximately 0.5 cc·L^−1 of EtO gas over a 12 h sterilization cycle at 35% humidity and room temperature, followed by a 48 h purge under vacuum. The bacterial strains used in this study included Staphylococcus epidermidis (ATCC 12228), Staphylococcus aureus (25923), Escherichia coli (ATCC 25922), Pseudomonas aeruginosa (ATCC 27853), Enterococcus faecalis (ATCC 29212), and methicillin-resistant Staphylococcus aureus (MRSA) (ATCC BAA-41).
# The contact-killing assay was performed on physically adsorbed (phys. ads.), and UV-treated blade-coated samples modified with a series of Qx-SH reagents using a method adapted from ISO 22196. See, International Organization for Standardization. Measurement of antibacterial activity on plastics and other non porous surfaces (ISO 22196:2011), the disclosure of which is incorporated herein by reference in its entirety. Briefly, the samples were inoculated with same day cultures of select bacteria (e.g. E. coli, S. epidermidis) in dilute nutrient media (0.2% tryptic soy broth (TSB) in 1× phosphate buffered saline (PBS)) at approximately 150 colony-forming units (CFU)·mm^−2. Generally, 35 uL of 8.5×10^5 CFU/mL cultures were dispersed across the surface of the sample using sterile polypropylene cover films (area=198 mm^2). […] Following incubation, surviving cells were recovered from the samples using vigorous agitation (i.e. vortexing for 20 s in PBS). Surviving cells were enumerated via 10-fold series dilution and plating 100 μL onto tryptic soy agar (TSA), incubating overnight and then plate counting CFU. The mean CFU recovered per sample (CFU/sample) were calculated by accounting for dilutions. Internal controls samples of polypropylene and chlorhexidine treated with polypropylene were included in the assay.
# S. epidermidis = assay: as above; assay type: cell-based, Staphylococcus epidermidis (ATCC 12228); settings: n = 2
# Protocol: as §1, §2
# (§3) The contact-killing assay was performed on physically adsorbed (phys. ads.), and UV-treated blade-coated samples modified with a series of Qx-SH reagents using a method adapted from ISO 22196. See, International Organization for Standardization. Measurement of antibacterial activity on plastics and other non porous surfaces (ISO 22196:2011), the disclosure of which is incorporated herein by reference in its entirety. Briefly, the samples were inoculated with same day cultures of select bacteria (e.g. E. coli, S. epidermidis) in dilute nutrient media (0.2% tryptic soy broth (TSB) in 1× phosphate buffered saline (PBS)) at approximately 150 colony-forming units (CFU)·mm^−2. Generally, 35 uL of 8.5×10^5 CFU/mL cultures were dispersed across the surface of the sample using sterile polypropylene cover films (area=198 mm^2). Inoculated samples were incubated in a humidified room air incubator (36° C., ca. 80% rel. humidity) for 20 h. Following incubation, surviving cells were recovered from the samples using vigorous agitation (i.e. vortexing for 20 s in PBS). Surviving cells were enumerated via 10-fold series dilution and plating 100 μL onto tryptic soy agar (TSA), incubating overnight and then plate counting CFU. The mean CFU recovered per sample (CFU/sample) were calculated by accounting for dilutions. Internal controls samples of polypropylene and chlorhexidine treated with polypropylene were included in the assay.
# MRSA = assay: as above; assay type: cell-based; settings: n = 1
# Protocol: as §1, §2, §3
# E. faecalis = assay: as above; assay type: cell-based, Enterococcus faecalis (ATCC 29212); settings: n = 1
# Protocol: as §1, §2, §3
# P. aeruginosa = assay: as above; assay type: cell-based, Pseudomonas aeruginosa (ATCC 27853); settings: for Mean CFU/Sample Recovered, P. aeruginosa: n = 1
# Protocol: as §1, §2, §3
# [3] = positive control (chlorhexidine treated polypropylene)
# [4] = UV-treated samples, 24 h contact-killing assay
# [5] = UV-treated samples, negative control polypropylene 2.04 (±0.06) × 10^6
# [6] = phys. ads. samples, negative control polypropylene 2.04 (±0.06) × 10^6
# [7] = UV-treated samples, negative control polypropylene 0.93 (±0.03) × 10^5
# [8] = phys. ads. samples, negative control polypropylene 0.93 (±0.03) × 10^5
# [9] = UV-treated samples, negative control polypropylene 1.51 × 10^5
# [10] = phys. ads. samples, negative control polypropylene 1.51 × 10^5
# [11] = UV-treated samples, negative control polypropylene 1.70 × 10^5
# [12] = phys. ads. samples, negative control polypropylene 1.70 × 10^5
# [13] = UV-treated samples, negative control polypropylene 7.94 × 10^6
# [14] = phys. ads. samples, negative control polypropylene 7.94 × 10^6
Compound,"log reduction, activity against E. coli (E. coli [1])","Mean CFU/Sample Recovered, E. coli (E. coli [2]; [3])","Mean CFU/Sample Recovered, S.epidermidis (S. epidermidis; [3])","Mean CFU/Sample Recovered, MRSA (MRSA; [3])","Mean CFU/Sample Recovered, E. faecalis (E. faecalis; [3])","Mean CFU/Sample Recovered, P. aeruginosa (P. aeruginosa; [3])",log reduction in E. coli compared to the negative control (E. coli [2]; [4]),reduction in E. coli compared to the negative control (E. coli [2]; [4]),"Mean CFU/Sample Recovered, E. coli (E. coli [2]; [5])","Mean CFU/Sample Recovered, E. coli (E. coli [2]; [6])","Mean CFU/Sample Recovered, S.epidermidis (S. epidermidis; [7])","Mean CFU/Sample Recovered, S.epidermidis (S. epidermidis; [8])","Mean CFU/Sample Recovered, MRSA (MRSA; [9])","Mean CFU/Sample Recovered, MRSA (MRSA; [10])","Mean CFU/Sample Recovered, E. faecalis (E. faecalis; [11])","Mean CFU/Sample Recovered, E. faecalis (E. faecalis; [12])",reduction of P. aeruginosa (P. aeruginosa; UV-treated samples),"Mean CFU/Sample Recovered, P. aeruginosa (P. aeruginosa; [13])","Mean CFU/Sample Recovered, P. aeruginosa (P. aeruginosa; [14])"
CCCCCCCCCCCCCC[N+](C)(C)CCCCCCCCOC(=O)CCSSCCC(=O)OCCCCCCCC[N+](C)(C)CCCCCCCCCCCCCC.[Cl-].[Cl-] [8-Q14-S-S],6 log,,,,,,,,,,,,,,,,,,
"[H]/N=C(\N/C(=N/[H])NCCCCCCNC(=N)NC(=N)Nc1ccc(Cl)cc1)Nc1ccc(Cl)cc1 [Chlorhexidine, reference compound]",,0.00 ± 0.00 CFU/Sample,0.00 ± 0.00 CFU/Sample,0.00 CFU/Sample,0.00 CFU/Sample,0.00 CFU/Sample,,,,,,,,,,,,,
CCCCCCCCCCCC[N+](C)(C)CCCCCCCCOC(=O)CCS.[Cl-] [Q12-SH],,,,,,,6 log,99.9999%,0.00 ± 0.00 CFU/Sample,1.17 (±0.41) × 10^3 CFU/Sample,0.00 ± 0.00 CFU/Sample,0.00 ± 0.00 CFU/Sample,0.00 CFU/Sample,0.00 CFU/Sample,0.00 CFU/Sample,0.00 CFU/Sample,complete reduction,0.00 CFU/Sample,7.24 × 10^5 CFU/Sample
CCCCCCCCCCCCCC[N+](C)(C)CCCCCCCCOC(=O)CCS.[Cl-] [Q14-SH],,,,,,,,,6.61 (±0.01) × 10^5 CFU/Sample,6.03 (±0.03) × 10^5 CFU/Sample,0.00 ± 0.00 CFU/Sample,0.00 ± 0.00 CFU/Sample,1.00 × 10^2 CFU/Sample,0.00 CFU/Sample,0.00 CFU/Sample,0.00 CFU/Sample,,5.25 × 10^6 CFU/Sample,4.79 × 10^6 CFU/Sample

# Source: US11155668B2, “Contact-killing, QAC functionalized thermoplastic polyurethane for catheter applications” (THE UNIVERSITY OF AKRON, priority 2017, dated 2021)
